Converted amounts (≈) assume the structure as drawn. Where a SMILES comes first, the peptide text is derived from it. Side-chain parts run from the residue outwards.

The test system of one series is Pseudomonas aeruginosa. The series can be described thus: Antibacterial activity against Pseudomonas aeruginosa ATCC 27853 assessed as inhibition of bacterial growth incubated for 20 hrs by broth microdilution method. It is filed as functional. A general note: Dilution methods test growth across graded concentrations, often in twofold steps.
In the next series the test system is Bacillus subtilis. The series can be described thus: Antibacterial activity against Bacillus subtilis ATCC 23857 assessed as inhibition of bacterial growth incubated for 20 hrs by broth microdilution method. The format is functional.
For a further series, the system named is Erythrocyte. Put plainly: Hemolytic activity in mouse erythrocytes assessed as 10% hemolysis incubated for 1 hr by absorbance based analysis. It is filed as toxicity, cell-based.
In the next series the test system is Escherichia coli. Put plainly: Antibacterial activity against Escherichia coli ATCC 25922 assessed as inhibition of bacterial growth incubated for 20 hrs by broth microdilution method. It is filed as functional.
Another series relates to Acinetobacter baumannii. Put plainly: Antibacterial activity against Acinetobacter baumannii ATCC 19606 assessed as inhibition of bacterial growth incubated for 20 hrs by broth microdilution method. It is filed as functional.
The subject of a further series is Klebsiella pneumoniae. Put plainly: Antibacterial activity against Klebsiella pneumoniae ATCC 700603 assessed as inhibition of bacterial growth incubated for 20 hrs by broth microdilution method. The format is functional.
A short description of series [1]: Cytotoxicity against HEK293T cells assessed as cell death measured after 1 hr by resazurin dye based analysis. The format is toxicity, HEK-293T. Particulars: human, HEK293T cells.
A further series has as its system Staphylococcus aureus. Put plainly: Antibacterial activity against Staphylococcus aureus ATCC 25923 assessed as inhibition of bacterial growth incubated for 20 hrs by broth microdilution method. The format is functional.

Turning to `N=C(N)NCCC[C@H](NC(=O)[C@H](CCCNC(=N)N)NC(=O)[C@H](CCCNC(=N)N)NC(=O)[C@H](CCCCNC(=O)[C@@H](N)Cc1c[nH]c2ccccc12)NC(=O)[C@@H](N)Cc1c[nH]c2ccccc12)C(N)=O` (H-WK(Trp)RRR-NH2), the MIC in the series on Pseudomonas aeruginosa, with Bacillus subtilis, in the series on Escherichia coli, in the series with Acinetobacter baumannii, with Klebsiella pneumoniae and in the series with Staphylococcus aureus was above 128 µM throughout. The MHC10 in the series with Erythrocyte is above 256 µM. In series [1], the CC50 at 1 h is above 128 µM.
Turning to H-WWKRR-NH2, the MIC was above 128 µM with Pseudomonas aeruginosa; 128 µM in the series on Bacillus subtilis; above 128 µM in the series on Escherichia coli; above 128 µM with Acinetobacter baumannii; above 128 µM in the series on Klebsiella pneumoniae; above 128 µM in the series on Staphylococcus aureus. In addition, in the series on Erythrocyte, the MHC10 was above 256 µM. The CC50 at 1 h in series [1] is above 128 µM.
In the case of H-RRRRRRKWWWWWWW-NH2, the MIC in the series on Pseudomonas aeruginosa amounted to 32 µM; in the series with Bacillus subtilis, 8 µM; with Escherichia coli, 16 µM; in the series with Acinetobacter baumannii, 32 µM; in the series on Klebsiella pneumoniae, 32 µM; with Staphylococcus aureus it was 8 µM. Besides, the MHC10 in the series with Erythrocyte worked out at 19.48 µM. In series [1], the CC50 at 1 h was found to be 101 µM.
For the compound `N=C(N)NCCC[C@H](N)C(=O)NCCCC[C@H](NC(=O)[C@@H](N)CCCNC(=N)N)C(=O)N[C@@H](Cc1c[nH]c2ccccc12)C(N)=O` (H-Arg-Lys(Arg)-Trp-NH2), the MIC with Pseudomonas aeruginosa, in the series on Bacillus subtilis, with Escherichia coli, with Acinetobacter baumannii, in the series with Klebsiella pneumoniae and with Staphylococcus aureus was above 128 µM each time. In the series with Erythrocyte, the MHC10 was above 256 µM. For the same compound, the CC50 at 1 h in series [1] is above 128 µM.
With `N=C(N)NCCC[C@H](N)C(=O)NCCCC[C@H](NC(=O)[C@@H](N)CCCNC(=N)N)C(=O)N[C@@H](Cc1c[nH]c2ccccc12)C(=O)N[C@@H](Cc1c[nH]c2ccccc12)C(N)=O` (H-RK(Arg)WW-NH2), the MIC is above 128 µM in the series on Pseudomonas aeruginosa; 128 µM (≈ 106 µg/mL) in the series with Bacillus subtilis; above 128 µM in the series with Escherichia coli; above 128 µM with Acinetobacter baumannii; above 128 µM in the series on Klebsiella pneumoniae; above 128 µM with Staphylococcus aureus. Besides, the MHC10 in the series on Erythrocyte is above 256 µM. The CC50 at 1 h in series [1] was above 128 µM.
In the case of `N=C(N)NCCC[C@H](NC(=O)[C@H](CCCNC(=N)N)NC(=O)[C@@H](N)CCCNC(=N)N)C(=O)NCCCC[C@H](NC(=O)[C@H](CCCNC(=N)N)NC(=O)[C@H](CCCNC(=N)N)NC(=O)[C@@H](N)CCCNC(=N)N)C(=O)N[C@@H](Cc1c[nH]c2ccccc12)C(=O)N[C@@H](Cc1c[nH]c2ccccc12)C(=O)N[C@@H](Cc1c[nH]c2ccccc12)C(=O)N[C@@H](Cc1c[nH]c2ccccc12)C(=O)N[C@@H](Cc1c[nH]c2ccccc12)C(N)=O`, the MIC is 16 µM (≈ 32.2 µg/mL) in the series with Pseudomonas aeruginosa; 8 µM (≈ 16.1 µg/mL) in the series on Bacillus subtilis; 16 µM (≈ 32.2 µg/mL) in the series on Escherichia coli; 32 µM (≈ 64.4 µg/mL) in the series with Acinetobacter baumannii; 16 µM (≈ 32.2 µg/mL) in the series on Klebsiella pneumoniae; 16 µM (≈ 32.2 µg/mL) in the series on Staphylococcus aureus. Moreover, the MHC10 with Erythrocyte is 91.08 µM. Moreover, the CC50 at 1 h in series [1] is 41.4 µM.
For the compound `N=C(N)NCCC[C@H](NC(=O)[C@H](CCCNC(=N)N)NC(=O)[C@H](CCCNC(=N)N)NC(=O)[C@H](CCCNC(=N)N)NC(=O)[C@H](CCCNC(=N)N)NC(=O)[C@H](CCCCNC(=O)[C@H](Cc1c[nH]c2ccccc12)NC(=O)[C@@H](N)Cc1c[nH]c2ccccc12)NC(=O)[C@H](Cc1c[nH]c2ccccc12)NC(=O)[C@@H](N)Cc1c[nH]c2ccccc12)C(N)=O` (H-WWK([Trp-Trp])RRRRR-NH2), the MIC in the series with Pseudomonas aeruginosa is 32 µM (≈ 53.5 µg/mL); in the series on Bacillus subtilis, 8 µM (≈ 13.4 µg/mL); with Escherichia coli, 8 µM (≈ 13.4 µg/mL); in the series with Acinetobacter baumannii it was 32 µM (≈ 53.5 µg/mL); in the series with Klebsiella pneumoniae, 64 µM (≈ 107 µg/mL); in the series on Staphylococcus aureus it was 8 µM (≈ 13.4 µg/mL). Also, the MHC10 in the series with Erythrocyte is above 256 µM. The CC50 at 1 h in series [1] was above 128 µM.
For H-WWWWWWKRRRRR-NH2, the MIC in the series on Pseudomonas aeruginosa is 16 µM; with Bacillus subtilis it was 8 µM; with Escherichia coli, 16 µM; in the series with Acinetobacter baumannii, 16 µM; with Klebsiella pneumoniae it was 32 µM; in the series on Staphylococcus aureus it was 8 µM. In addition, the MHC10 in the series with Erythrocyte was 29.45 µM. Also, the CC50 at 1 h in series [1] stood at 44.9 µM.
Regarding H-RRRRRRKWWWWWW-NH2, the minimal inhibitory concentration (MIC) was found to be 64 µM with Pseudomonas aeruginosa; 8 µM in the series with Bacillus subtilis; 16 µM in the series with Escherichia coli; 16 µM in the series on Acinetobacter baumannii; 32 µM in the series with Klebsiella pneumoniae; 32 µM in the series on Staphylococcus aureus. Besides, the MHC10 with Erythrocyte was 24.89 µM. For the same compound, the CC50 at 1 h in series [1] stood at 51.5 µM.
On to H-WWKRRR-NH2, for which the MIC in the series on Pseudomonas aeruginosa is above 128 µM; with Bacillus subtilis, 64 µM; in the series on Escherichia coli, above 128 µM; in the series on Acinetobacter baumannii, above 128 µM; in the series on Klebsiella pneumoniae, above 128 µM; in the series with Staphylococcus aureus it was above 128 µM. For the same compound, in the series with Erythrocyte, the MHC10 is above 256 µM. The CC50 at 1 h in series [1] is above 128 µM.
Consider `N=C(N)NCCC[C@H](NC(=O)[C@H](CCCNC(=N)N)NC(=O)[C@@H](N)CCCNC(=N)N)C(=O)NCCCC[C@H](NC(=O)[C@H](CCCNC(=N)N)NC(=O)[C@H](CCCNC(=N)N)NC(=O)[C@@H](N)CCCNC(=N)N)C(=O)N[C@@H](Cc1c[nH]c2ccccc12)C(=O)N[C@@H](Cc1c[nH]c2ccccc12)C(=O)N[C@@H](Cc1c[nH]c2ccccc12)C(=O)N[C@@H](Cc1c[nH]c2ccccc12)C(=O)N[C@@H](Cc1c[nH]c2ccccc12)C(=O)N[C@@H](Cc1c[nH]c2ccccc12)C(=O)N[C@@H](Cc1c[nH]c2ccccc12)C(N)=O` (H-RRRK([Arg-Arg-Arg])WWWWWWW-NH2), for which the MIC in the series with Pseudomonas aeruginosa was found to be 16 µM (≈ 38.2 µg/mL); in the series with Bacillus subtilis it was 16 µM (≈ 38.2 µg/mL); in the series with Escherichia coli, 64 µM (≈ 153 µg/mL); in the series with Acinetobacter baumannii it was 16 µM (≈ 38.2 µg/mL); in the series on Klebsiella pneumoniae, 64 µM (≈ 153 µg/mL); in the series on Staphylococcus aureus it was 32 µM (≈ 76.3 µg/mL). Moreover, the MHC10 in the series on Erythrocyte turned out to be 12.98 µM. Further, in series [1], the CC50 at 1 h is 53.5 µM.
As for `N=C(N)NCCC[C@H](NC(=O)[C@H](CCCNC(=N)N)NC(=O)[C@H](CCCNC(=N)N)NC(=O)[C@H](CCCCNC(=O)[C@H](Cc1c[nH]c2ccccc12)NC(=O)[C@@H](N)Cc1c[nH]c2ccccc12)NC(=O)[C@H](Cc1c[nH]c2ccccc12)NC(=O)[C@@H](N)Cc1c[nH]c2ccccc12)C(N)=O` (H-WWK([Trp-Trp])RRR-NH2), the MIC is above 128 µM in the series on Pseudomonas aeruginosa; 16 µM (≈ 21.7 µg/mL) in the series with Bacillus subtilis; above 128 µM with Escherichia coli; 128 µM (≈ 174 µg/mL) in the series with Acinetobacter baumannii; above 128 µM with Klebsiella pneumoniae; 16 µM (≈ 21.7 µg/mL) with Staphylococcus aureus. In the series on Erythrocyte, the MHC10 was above 256 µM. Further, in series [1], the CC50 at 1 h is above 128 µM.
For `N=C(N)NCCC[C@H](NC(=O)[C@@H](N)CCCNC(=N)N)C(=O)NCCCC[C@H](NC(=O)[C@H](CCCNC(=N)N)NC(=O)[C@@H](N)CCCNC(=N)N)C(=O)N[C@@H](Cc1c[nH]c2ccccc12)C(=O)N[C@@H](Cc1c[nH]c2ccccc12)C(=O)N[C@@H](Cc1c[nH]c2ccccc12)C(=O)N[C@@H](Cc1c[nH]c2ccccc12)C(=O)N[C@@H](Cc1c[nH]c2ccccc12)C(N)=O` (H-RRK([Arg-Arg])WWWWW-NH2), the MIC was 16 µM (≈ 27.2 µg/mL) in the series with Pseudomonas aeruginosa; 8 µM (≈ 13.6 µg/mL) with Bacillus subtilis; 16 µM (≈ 27.2 µg/mL) in the series with Escherichia coli; 32 µM (≈ 54.4 µg/mL) in the series with Acinetobacter baumannii; 16 µM (≈ 27.2 µg/mL) with Klebsiella pneumoniae; 16 µM (≈ 27.2 µg/mL) in the series with Staphylococcus aureus. Besides, in the series on Erythrocyte, the MHC10 is 51.32 µM. Besides, the CC50 at 1 h in series [1] amounted to 58.8 µM.

The term MIC denotes the lowest concentration that inhibits growth of the organism. Usually CC50 stands for the concentration at which the toxic effect on the cells reaches its halfway point.

For the origin of these results see ChEMBL document CHEMBL5500371, “Arginine and tryptophan-rich dendritic antimicrobial peptides that disrupt membranes for bacterial infection in vivo” (Eur J Med Chem, 2024).
